Experimental data: ChEMBL document CHEMBL1149918, “Novel 1,5-benzodiazepindione gastrin/CCKB antagonists” (Bioorg Med Chem Lett, 1997)

Columns and labels:
[1] = biological target: T1, Cholecystokinin receptor type A (Homo sapiens, UniProt P32238); test: Tested for its selectivity against human Cholecystokinin type A receptor isolated from a human gallbladder cDNA library and stably transfected into a COSM6 cell line; (n=1); format: cell-based
T1 sequence (P32238 whole entry): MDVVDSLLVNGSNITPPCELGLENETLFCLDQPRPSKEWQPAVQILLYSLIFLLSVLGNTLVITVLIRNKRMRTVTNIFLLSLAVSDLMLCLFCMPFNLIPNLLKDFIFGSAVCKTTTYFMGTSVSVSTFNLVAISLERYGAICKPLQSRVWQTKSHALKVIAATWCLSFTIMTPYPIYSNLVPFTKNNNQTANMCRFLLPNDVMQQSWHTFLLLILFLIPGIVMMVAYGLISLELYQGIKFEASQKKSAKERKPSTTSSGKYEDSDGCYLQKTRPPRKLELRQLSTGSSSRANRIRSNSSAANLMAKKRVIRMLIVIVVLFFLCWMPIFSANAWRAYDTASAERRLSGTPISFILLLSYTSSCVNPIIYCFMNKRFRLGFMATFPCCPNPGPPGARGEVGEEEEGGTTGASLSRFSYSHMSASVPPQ

[2] = biological target: T2, Gastrin/cholecystokinin type B receptor (Homo sapiens, UniProt P32239); test: Tested for its selectivity against human Cholecystokinin type B receptor isolated from a human temporal cortex cDNA library and stably transfected into a HeLa cell line. (n=1); format: cell-based
T2 sequence (P32239 whole entry): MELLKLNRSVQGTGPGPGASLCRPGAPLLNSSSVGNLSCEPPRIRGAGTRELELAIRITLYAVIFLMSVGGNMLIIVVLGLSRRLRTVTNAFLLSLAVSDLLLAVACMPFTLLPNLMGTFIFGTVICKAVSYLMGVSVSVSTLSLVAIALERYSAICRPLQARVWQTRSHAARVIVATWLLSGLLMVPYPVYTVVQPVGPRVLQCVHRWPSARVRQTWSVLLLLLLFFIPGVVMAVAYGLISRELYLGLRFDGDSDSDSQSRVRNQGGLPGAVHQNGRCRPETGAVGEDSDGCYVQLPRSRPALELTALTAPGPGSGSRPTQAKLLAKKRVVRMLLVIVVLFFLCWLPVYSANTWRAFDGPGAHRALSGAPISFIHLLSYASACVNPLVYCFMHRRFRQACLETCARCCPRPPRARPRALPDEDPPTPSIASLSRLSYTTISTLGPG

[3] = Oral bioavailability in rat; format: ADME, organism-based; settings: in vivo
Rattus norvegicus [4] = test: Compound was tested for its ability to inhibit acid secretion in the pentagastrin stimulated gastric fistula rat model by intravenous dose of 1 mg/kg; format: functional; settings: Stomach
[5] = biological target: T1, Cholecystokinin receptor type A; test: Tested for its selectivity against human Cholecystokinin type A receptor isolated from a human gallbladder cDNA library and stably transfected into a COSM6 cell line (n=1); format: cell-based
Rattus norvegicus [6] = test: Compound was tested for its ability to inhibit acid secretion in the pentagastrin stimulated gastric fistula rat model by intra gastric dose of 1 mg/kg; format: functional; settings: Stomach
[7] = biological target: T3, Gastrin/cholecystokinin type B receptor (Rattus norvegicus) (UniProt P30553); test: Tested for selectivity toward gastrin receptor by the ability to block pentagastrin stimulated acid secretion from isolated rat gastric mucosa (RGM); format: tissue-based
T3 sequence (whole entry): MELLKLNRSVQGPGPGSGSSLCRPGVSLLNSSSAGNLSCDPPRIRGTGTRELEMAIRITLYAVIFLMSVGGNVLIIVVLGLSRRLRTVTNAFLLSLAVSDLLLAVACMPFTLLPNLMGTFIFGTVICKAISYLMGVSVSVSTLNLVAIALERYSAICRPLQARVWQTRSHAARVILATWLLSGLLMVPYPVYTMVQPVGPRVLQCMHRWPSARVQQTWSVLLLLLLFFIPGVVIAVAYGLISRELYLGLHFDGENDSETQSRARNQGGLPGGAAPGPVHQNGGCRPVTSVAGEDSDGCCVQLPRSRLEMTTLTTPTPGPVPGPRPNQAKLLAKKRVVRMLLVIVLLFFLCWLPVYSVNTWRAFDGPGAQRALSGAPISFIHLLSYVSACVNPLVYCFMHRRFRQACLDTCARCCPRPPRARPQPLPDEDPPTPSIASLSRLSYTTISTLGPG

[8] = Compound was tested for plasma clearance in rat; format: ADME, organism-based; settings: read-out: Clp
[9] = biological target: T4, Cholecystokinin receptor type A (Cavia porcellus) (UniProt Q63931); test: Tested for selectivity toward Cholecystokinin type A receptor by guinea -pig isolated ileum longitudinal muscle-myenteric plexus (GPI) assay; format: tissue-based
T4 sequence (whole entry): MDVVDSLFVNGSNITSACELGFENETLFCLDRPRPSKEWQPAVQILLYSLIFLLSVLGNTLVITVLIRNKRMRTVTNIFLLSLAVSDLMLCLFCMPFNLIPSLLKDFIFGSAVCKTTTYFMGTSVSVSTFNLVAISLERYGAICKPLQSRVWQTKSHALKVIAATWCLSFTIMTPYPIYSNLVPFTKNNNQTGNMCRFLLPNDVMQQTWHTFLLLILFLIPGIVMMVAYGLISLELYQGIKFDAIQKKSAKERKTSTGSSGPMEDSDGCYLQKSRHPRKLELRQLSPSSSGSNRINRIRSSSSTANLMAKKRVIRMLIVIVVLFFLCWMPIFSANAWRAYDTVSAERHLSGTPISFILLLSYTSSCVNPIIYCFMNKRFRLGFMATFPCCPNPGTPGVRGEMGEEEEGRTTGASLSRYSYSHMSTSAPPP

[10] = biological target: T3, Gastrin/cholecystokinin type B receptor (Rattus norvegicus); settings: Gastric mucosa
Rattus norvegicus [11] = test: Tested for its ability to inhibit acid secretion in the pentagastrin stimulated gastric fistula rat model by intra gastric dose of 1 mg/kg; format: functional; settings: Stomach
Rattus norvegicus [12] = test: Tested for its ability to inhibit acid secretion in the pentagastrin stimulated gastric fistula rat model by intravenous dose of 0.1 mg/kg; format: functional; settings: Stomach
Rattus norvegicus [13] = test: Tested for its ability to inhibit acid secretion in the pentagastrin stimulated gastric fistula rat model by intra gastric dose of 0.3 mg/kg; format: functional; settings: Stomach
Rattus norvegicus [14] = test: Tested for its ability to inhibit acid secretion in the pentagastrin stimulated gastric fistula rat model by intravenous dose of 0.3 mg/kg; format: functional; settings: Stomach

| Structure (SMILES) | Ki [1] [nM] | Ki [2] [nM] | bioavailability [3] [%] | pKB [7] | clearance [8] [mL/min/kg] | pKB [9] | further results |
| --- | --- | --- | --- | --- | --- | --- | --- |
| O=C(Nc1ccc(F)cc1)N[C@H]1C(=O)N(CC(=O)N2CCCC2)c2ccccc2N(C2CCCCCC2)C1=O | 79.4 | 1.58 | 10 |  |  |  |  |
| O=C(Nc1ccc(F)cc1)NC1C(=O)N(CC(=O)N2CCCC2)c2ccccc2N(c2ccccc2F)C1=O (stereo unspecified) |  | 12.6 | 68 | 8.6 | 15 | 6.8 | inhibition in vivo at 1 mg/kg (Rattus norvegicus [4]): 86%; Ki [5]: 50.1 nM; inhibition in vivo at 1 mg/kg (Rattus norvegicus [6]): 73% |
| Cc1cccc(NC(=O)N[C@@H]2N=C(c3ccccc3)c3ccccc3N(C)C2=O)c1 |  |  |  |  |  | 7.7 | pKB [10]: 7.6 |
| O=C(Nc1ccccc1)NC1C(=O)N(CC(=O)N2CCCC2)c2ccccc2N(c2ccccc2)C1=O (stereo unspecified) |  |  |  | 8.5 |  | 7.3 |  |
| O=C(Nc1cccc(C2N=NN=N2)c1)NC1C(=O)N(CC(=O)N2CCCC2)c2ccccc2N(c2ccccc2)C1=O (stereo unspecified) |  |  |  | 10.3 |  | 7.4 | inhibition in vivo at 1 mg/kg (Rattus norvegicus [11]): 45%; inhibition in vivo at 0.1 mg/kg (Rattus norvegicus [12]): 79% |
| O=C(Nc1cccc(C(=O)O)c1)NC1C(=O)N(CC(=O)N2CCCC2)c2ccccc2N(c2ccccc2)C1=O (stereo unspecified) |  |  |  | 8.6 |  | 5.7 |  |
| O=C(Nc1ccc(F)cc1)N[C@H]1C(=O)N(CC(=O)N2CCCC2)c2ccccc2N(C2CCCCC2)C1=O | 79.4 | 2.51 | 23 |  | 36 |  | inhibition in vivo at 0.3 mg/kg (Rattus norvegicus [13]): 67%; inhibition in vivo at 0.3 mg/kg (Rattus norvegicus [14]): 60% |
| O=C(Nc1ccc(F)cc1)NC1C(=O)N(CC(=O)N2CC3CCC(CC3)C2)c2ccccc2N(c2ccccc2F)C1=O (racemic) | 10 | 0.398 | 7 |  | 28 |  |  |
